What was measured:
human Tie2 = biological target: T1, human Tie2 (Homo sapiens, UniProt Q02763); assay: Tie2 kinase inhibition: phosphorylation of GST-PLC (SH2-SH3 fragments) by GST-Tie2, 33P-ATP flashplate; type: biochemical; details: read-out: Tie2 % Inhib. 10 μM
T1 construct: human Tie2 corresponding to amino acids 776-1124 of the intracellular domain was generated by PCR; made in house; host or cells: baculovirus expression system (vector pFastBacGT)
Method: The coding sequence of human Tie2 corresponding to amino acids 776-1124 of the intracellular domain was generated by PCR using the cDNA isolated from human placenta as model. This sequence was introduced into a baculovirus expression vector pFastBacGT in the form of a GST fusion protein.
The inhibitory effect of the molecules is determined in an assay for phosphorylation of PLC by Tie2 in the presence of GST-Tie2 purified to approximately 80% homogeneity. The substrate is made up of the SH2-SH3 fragments of PLC, the latter being expressed in the form of a GST fusion protein.
The kinase activity of Tie2 is measured in a 20 mM MOPS buffer, pH 7.2, containing 10 mM MgCl2, 10 mM MnCl2, 1 mM DTT and 10 mM of glycerophosphate. A reaction mixture made up of 70 μl of kinase buffer containing 100 ng of GST-Tie2 enzyme per well is placed in a flashplate 96-well plate kept on ice. 10 μl of the molecule to be tested, diluted in DMSO, at a concentration of at most 10% are then added. For a given concentration, each measurement is carried out in quadruplicate. The reaction is initiated by adding 20 μl of solution containing 2 μg of GST-PLC, 2 μM of cold ATP and 1 μCi of ^33P[ATP]. After incubation for 1 hour at 37° C., the reaction is stopped by adding 1 volume (100 μl) of 200 mM EDTA. After removal of the incubation buffer, the wells are washed three times with 300 μl of PBS. The radioactivity is measured on a Wallac MicroBeta 1450.
The inhibition of the Tie2 activity is calculated and expressed as percentage inhibition with respect to the control activity determined in the absence of compound.

human KDR enzyme = biological target: T2, human KDR enzyme (Homo sapiens, UniProt P35968); assay: KDR kinase inhibition: phosphorylation of PLCγ SH2-SH3 substrate by KDR enzyme, 33P-ATP scintillation plate; type: biochemical; details: read-out: KDR % Inhib. 10 μM
T2 construct: The cytoplasmic domain of the human KDR enzyme was cloned in GST fusion form; GST; made in house; host or cells: SF21 insect cells (baculovirus, pFastBac)
T2 sequence (P35968 786-1356 limits assumed): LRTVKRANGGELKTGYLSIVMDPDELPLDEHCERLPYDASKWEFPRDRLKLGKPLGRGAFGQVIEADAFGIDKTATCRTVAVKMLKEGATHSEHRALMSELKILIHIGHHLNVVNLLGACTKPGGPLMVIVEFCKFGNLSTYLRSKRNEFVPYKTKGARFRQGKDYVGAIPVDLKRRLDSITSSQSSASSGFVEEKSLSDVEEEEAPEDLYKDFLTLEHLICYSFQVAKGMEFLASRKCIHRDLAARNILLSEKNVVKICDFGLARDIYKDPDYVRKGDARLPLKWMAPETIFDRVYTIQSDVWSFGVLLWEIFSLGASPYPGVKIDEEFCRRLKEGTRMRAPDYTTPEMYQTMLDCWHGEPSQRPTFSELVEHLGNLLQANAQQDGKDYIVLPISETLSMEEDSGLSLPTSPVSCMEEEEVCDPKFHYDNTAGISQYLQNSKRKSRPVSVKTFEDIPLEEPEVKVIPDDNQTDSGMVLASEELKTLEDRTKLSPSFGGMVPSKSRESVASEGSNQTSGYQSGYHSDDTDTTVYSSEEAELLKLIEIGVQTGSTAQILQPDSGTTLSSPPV
Method: The inhibitory effect of the compounds is determined in an assay for phosphorylation of substrate by the KDR enzyme in vitro using a scintillation technique (96-well plate, NEN).
The cytoplasmic domain of the human KDR enzyme was cloned in GST fusion form into the baculovirus expression vector pFastBac. The protein was expressed in SF21 cells and purified to approximately 60% homogeneity. The KDR kinase activity is measured in 20 mM MOPS, 10 mM MgCl2, 10 mM MnCl2, 1 mM DTT, 2.5 mM EGTA, 10 mM b-glycerophosphate, pH=7.2, in the presence of 10 mM MgCl2, 100 μM Na3VO4 and 1 mM NaF. 10 μl of the compound are added to 70 μl of kinase buffer containing 100 ng of KDR enzyme at 4° C. The reaction is initiated by adding 20 μl of solution containing 2 μg of substrate (SH2-SH3 fragment of PLCγ expressed in the form of an GST fusion protein), 2 μCi γ ^33P[ATP] and 2 μM cold ATP. After incubation for 1 hour at 37° C., the reaction is stopped by adding 1 volume (100 μl) of 200 mM EDTA. The incubation buffer is removed and the wells are washed three times with 300 μl of PBS. The radioactivity is measured in each well using a Top Count NXT (Packard) radioactivity counter.
The background noise is determined by measuring the radioactivity in four different wells containing the radioactive ATP and the substrate alone.
A total activity control is measured in four different wells containing all the reagents (γ^33P-[ATP], KDR and PLC-γ substrate) but in the absence of compound.
The inhibition of the KDR activity with the compound of the invention is expressed as percentage inhibition of the control activity determined in the absence of compound.
The compound SU5614 (Calbiochem) (1 μM) is included in each plate as inhibition control.

T1 sequence (Q02763 776-1124): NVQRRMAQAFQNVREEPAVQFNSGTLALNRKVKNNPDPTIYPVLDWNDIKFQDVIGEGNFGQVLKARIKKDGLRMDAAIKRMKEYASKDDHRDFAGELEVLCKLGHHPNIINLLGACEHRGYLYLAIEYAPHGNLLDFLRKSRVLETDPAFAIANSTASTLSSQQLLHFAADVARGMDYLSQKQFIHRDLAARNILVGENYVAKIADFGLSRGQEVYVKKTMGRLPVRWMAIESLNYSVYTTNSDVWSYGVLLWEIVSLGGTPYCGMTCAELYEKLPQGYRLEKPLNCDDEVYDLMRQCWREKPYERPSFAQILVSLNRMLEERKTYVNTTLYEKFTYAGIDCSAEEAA

Row | inhibition at 10 µM (human Tie2) | inhibition at 10 µM (human KDR enzyme) | Structure (SMILES)
1 | 33% | 1.85% | Cc1cc2nc(-c3[nH]nc4c3CCN(CC3CC3)C4)[nH]c2cc1C [Chemistry 21]
2 | 24.9% | 3.65% | Cc1cc2nc(-c3[nH]nc4c3CCNC4)[nH]c2cc1C [Chemistry 22]
3 | 92.5% | 48% | Cc1cc2nc(-c3[nH]nc4c3CCN(S(=O)(=O)c3ccccc3)C4)[nH]c2cc1C [Chemistry 23]
4 | 91.5% | 70.8% | Cc1cc2nc(-c3[nH]nc4c3CCN(S(=O)(=O)Cc3ccccc3)C4)[nH]c2cc1C [Chemistry 24]
5 | 89.1% | 31.9% | Cc1cc2nc(-c3[nH]nc4c3CCN(S(=O)(=O)c3cccc(Cl)c3Cl)C4)[nH]c2cc1C [Chemistry 25]
6 | 89.1% | 27.8% | Cc1cc2nc(-c3[nH]nc4c3CCN(S(=O)(=O)c3ccc(Cl)cc3)C4)[nH]c2cc1C [Chemistry 26]
7 | 65.4% | 22.9% | Cc1cc2nc(-c3[nH]nc4c3CCN(S(=O)(=O)CC(F)(F)F)C4)[nH]c2cc1C [Chemistry 27]
8 | 78.5% | 16.5% | CCS(=O)(=O)N1CCc2c(n[nH]c2-c2nc3cc(C)c(C)cc3[nH]2)C1 [Chemistry 28]
9 | 47.5% | 13.3% | CCCS(=O)(=O)N1CCc2c(n[nH]c2-c2nc3cc(C)c(C)cc3[nH]2)C1 [Chemistry 29]
10 | 44.2% | 15.3% | CCCCS(=O)(=O)N1CCc2c(n[nH]c2-c2nc3cc(C)c(C)cc3[nH]2)C1 [Chemistry 30]
11 | 93.2% | 45.7% | Cc1cc2nc(-c3[nH]nc4c3CCN(S(=O)(=O)c3ccccc3Cl)C4)[nH]c2cc1C [Chemistry 31]
12 | 91.5% | 46.5% | Cc1cc2nc(-c3[nH]nc4c3CCN(S(=O)(=O)c3cccc(Cl)c3)C4)[nH]c2cc1C [Chemistry 32]
13 | 95.9% | 57.7% | Cc1cc2nc(-c3[nH]nc4c3CCN(S(=O)(=O)Cc3ccc(F)cc3)C4)[nH]c2cc1C [Chemistry 33]
14 | 84.7% | 18.1% | COc1ccc(S(=O)(=O)N2CCc3c(n[nH]c3-c3nc4cc(C)c(C)cc4[nH]3)C2)cc1 [Chemistry 34]
15 | 88.8% | 27.4% | Cc1ccc(S(=O)(=O)N2CCc3c(n[nH]c3-c3nc4cc(C)c(C)cc4[nH]3)C2)cc1 [Chemistry 35]
16 | 90.8% | 49.4% | Cc1cc2nc(-c3[nH]nc4c3CCN(S(=O)(=O)c3ccccc3C)C4)[nH]c2cc1C [Chemistry 36]
17 | 88.3% | 41.2% | Cc1cccc(S(=O)(=O)N2CCc3c(n[nH]c3-c3nc4cc(C)c(C)cc4[nH]3)C2)c1 [Chemistry 37]
18 | 84.6% | 20.9% | COc1cccc(S(=O)(=O)N2CCc3c(n[nH]c3-c3nc4cc(C)c(C)cc4[nH]3)C2)c1 [Chemistry 38]
19 | 97.9% | 30.9% | COc1ccccc1S(=O)(=O)N1CCc2c(-c3nc4cc(C)c(C)cc4[nH]3)n[nH]c2C1 [Chemistry 39]
20 | 83.4% | 14.4% | Cc1cc2nc(-c3[nH]nc4c3CCN(C(=O)C(C)C)C4)[nH]c2cc1C [Chemistry 40]
21 | 86.3% | 72.5% | Cc1cc2nc(-c3[nH]nc4c3CCN(C(=O)c3ccccc3)C4)[nH]c2cc1C [Chemistry 41]
22 | 97.4% | 52.6% | Cc1cc2nc(-c3[nH]nc4c3CCN(C(=O)c3cccc(Cl)c3Cl)C4)[nH]c2cc1C [Chemistry 42]
23 | 84.4% | 10.9% | Cc1cc2nc(-c3[nH]nc4c3CCN(C(=O)Cc3ccccc3)C4)[nH]c2cc1C [Chemistry 43]
24 | 90.8% | 41.1% | CC(=O)N1CCc2c(n[nH]c2-c2nc3cc(C)c(C)cc3[nH]2)C1 [Chemistry 44]

Continued, molecule first:

Row | Structure (SMILES) | inhibition at 10 µM (human Tie2) | inhibition at 10 µM (human KDR enzyme)
25 | COc1cc(C)ccc1S(=O)(=O)Nc1ccc(N2CCc3c(n[nH]c3-c3nc4cc(C)c(C)cc4[nH]3)C2)nc1 | 98% | –
26 | Cc1cc2nc(-c3[nH]nc4c3CCN(c3ccc(NS(=O)(=O)c5cccs5)cn3)C4)[nH]c2cc1C | 100% | –
27 | COc1ccc(S(=O)(=O)Nc2ccc(N3CCc4c(n[nH]c4-c4nc5cc(C)c(C)cc5[nH]4)C3)nc2)cc1 | 99% | –
28 | Cc1cc2nc(-c3[nH]nc4c3CCN(c3ccc(NS(=O)(=O)c5ccccc5Cl)cn3)C4)[nH]c2cc1C | 100% | –
29 | Cc1cc2nc(-c3[nH]nc4c3CCN(C(=O)NCCc3ccccc3)C4)[nH]c2cc1C [Chemistry 2] | – | 77.2%
30 | Cc1cc2nc(-c3[nH]nc4c3CCN(S(C)(=O)=O)C4)[nH]c2cc1C [Chemistry 3] | – | 78.1%
31 | Cc1cc2nc(-c3[nH]nc4c3CCN(C(=O)c3cccnc3)C4)[nH]c2cc1C [Chemistry 4] | – | 25.4%
32 | Cc1cc2nc(-c3[nH]nc4c3CCN(Cc3cccc(Cl)c3)C4)[nH]c2cc1C [Chemistry 5] | – | 88.8%
33 | Cc1cc2nc(-c3[nH]nc4c3CCN(CC(C)C)C4)[nH]c2cc1C [Chemistry 6] | 41.2% | 2.1%
34 | Cc1cc2nc(-c3[nH]nc4c3CCN(C)C4)[nH]c2cc1C [Chemistry 7] | 48.6% | 12.2%
35 | Cc1cc2nc(-c3[nH]nc4c3CCN(Cc3ccccc3)C4)[nH]c2cc1C [Chemistry 8] | 64.3% | 85.5%
36 | Cc1cc2nc(-c3[nH]nc4c3CCN(CCc3ccccc3)C4)[nH]c2cc1C [Chemistry 9] | 56.7% | 15.4%
37 | Cc1cc2nc(-c3[nH]nc4c3CCN(Cc3cccc(Cl)c3Cl)C4)[nH]c2cc1C [Chemistry 10] | 83.9% | 79.5%
38 | Cc1cc2nc(-c3[nH]nc4c3CCN(Cc3ccco3)C4)[nH]c2cc1C [Chemistry 11] | 66.1% | 70.3%
39 | Cc1cc2nc(-c3[nH]nc4c3CCN(Cc3ccc(Cl)cc3)C4)[nH]c2cc1C [Chemistry 12] | 60.3% | 69%
40 | Cc1cc2nc(-c3[nH]nc4c3CCN(Cc3cccs3)C4)[nH]c2cc1C [Chemistry 13] | 41.5% | 84.5%
41 | Cc1cc2nc(-c3[nH]nc4c3CCN(Cc3cccnc3)C4)[nH]c2cc1C [Chemistry 14] | 50.5% | 14.8%
42 | Cc1cc2nc(-c3[nH]nc4c3CCN(CC(C)(C)C)C4)[nH]c2cc1C [Chemistry 15] | 69.4% | 39.3%
43 | CCN1CCc2c(n[nH]c2-c2nc3cc(C)c(C)cc3[nH]2)C1 [Chemistry 16] | 36.4% | -5.75%
44 | Cc1cc2nc(-c3[nH]nc4c3CCN(CCC(C)C)C4)[nH]c2cc1C [Chemistry 17] | 50.7% | -2.9%
45 | CCCN1CCc2c(n[nH]c2-c2nc3cc(C)c(C)cc3[nH]2)C1 [Chemistry 18] | 55% | -3.7%
46 | Cc1cc2nc(-c3[nH]nc4c3CCN(CCCc3ccccc3)C4)[nH]c2cc1C [Chemistry 19] | 68.1% | 17.9%
47 | CCCCN1CCc2c(n[nH]c2-c2nc3cc(C)c(C)cc3[nH]2)C1 [Chemistry 20] | 47.6% | 1.65%
